Assay results taken from patent publication US20260015325A1, “ALKOXY HETEROARYL- CARBOXAMIDE OR THIOAMIDE COMPOUNDS” (SYNGENTA CROP PROTECTION AG, priority 2022, published 2026).
Like-named read-outs stand apart in the source and are kept apart here.

Key:
Type in all cases: in vivo
[1] = tested on: Euschistus heros (Neotropical Brown Stink Bug); experiment: Euschistus heros (Neotropical Brown Stink Bug), soybean leaves; conditions: 120 h, read-out: effect in at least one of the two categories (mortality or growth inhibition); for percent effect (mortality or growth inhibition) at 200 ppm: application rate of 200 ppm, N2 nymphs on sprayed soybean leaves, 5 days after infestation
Protocol: Example B4: Euschistus heros (Neotropical Brown Stink Bug)
Soybean leaves on agar in 24-well microtiter plates were sprayed with aqueous test solutions prepared from 10′000 ppm DMSO stock solutions. After drying the leaves were infested with N2 nymphs. The samples were assessed for mortality and growth inhibition in comparison to untreated samples 5 days after infestation.

[2] = tested on: Myzus persicae (Green Peach Aphid); experiment: Myzus persicae (Green Peach Aphid): intrinsic activity, sucrose solution; conditions: 120 h
Text: Example B8: Myzus persicae (Green Peach Aphid). Intrinsic Activity
Test compounds prepared from 10′000 ppm DMSO stock solutions were applied by pipette into 24-well microtiter plates and mixed with sucrose solution. The plates were closed with a stretched Parafilm. A plastic stencil with 24 holes was placed onto the plate and infested pea seedlings were placed directly on the Parafilm. The infested plate was closed with a gel blotting paper and another plastic stencil and then turned upside down. The samples were assessed for mortality 5 days after infestation.

[3] = tested on: Bemisia tabaci (Cotton White Fly); experiment: Bemisia tabaci (Cotton White Fly): feeding/contact activity, cotton leaf discs; conditions: foliar, 144 h
Protocol: Example B1: Bemisia tabaci (Cotton White Fly): Feeding/Contact Activity
Cotton leaf discs were placed on agar in 24-well microtiter plates and sprayed with aqueous test solutions prepared from 10′000 ppm DMSO stock solutions. After drying the leaf discs were infested with adult white flies. The samples were checked for mortality 6 days after incubation.

[4] = tested on: Myzus persicae (Green Peach Aphid); experiment: Myzus persicae (Green Peach Aphid): systemic activity, pea seedlings; conditions: 144 h
Protocol: Example B7: Myzus persicae (Green Peach Aphid). Systemic Activity
Roots of pea seedlings infested with an aphid population of mixed ages were placed directly into aqueous test solutions prepared from 10′000 DMSO stock solutions. The samples were assessed for mortality 6 days after placing seedlings into test solutions.

[5] = tested on: Tetranychus urticae (Two-Spotted Spider Mite); experiment: whole plant or invertebrate; conditions: foliar, 192 h
Protocol: Example B11: Tetranychus urticae (Two-Spotted Spider Mite): Feeding/Contact Activity
Bean leaf discs on agar in 24-well microtiter plates were sprayed with aqueous test solutions prepared from 10′000 ppm DMSO stock solutions. After drying the leaf discs were infested with a mite population of mixed ages. The samples were assessed for mortality on mixed population (mobile stages) 8 days after infestation.

[6] = tested on: Myzus persicae (Green Peach Aphid); experiment: Myzus persicae (Green Peach Aphid): feeding/contact activity, sunflower leaf discs; conditions: foliar, 144 h
Protocol: Example B6: Myzus persicae (Green Peach Aphid): Feeding/Contact Activity
Sunflower leaf discs were placed onto agar in a 24-well microtiter plate and sprayed with aqueous test solutions prepared from 10′000 ppm DMSO stock solutions. After drying, the leaf discs were infested with an aphid population of mixed ages. The samples were assessed for mortality 6 days after infestation.

[7] = tested on: Frankliniella occidentalis (Western Flower Thrips); experiment: Frankliniella occidentalis (Western Flower Thrips): feeding/contact activity, sunflower leaf discs; conditions: foliar, 168 h, application rate of 200 ppm, mixed ages on sprayed sunflower leaf discs, 7 days after infestation
Protocol: Example B5: Frankliniella occidentalis (Western Flower Thrips): Feeding/Contact Activity
Sunflower leaf discs were placed on agar in 24-well microtiter plates and sprayed with aqueous test solutions prepared from […] stock solutions. After drying the leaf discs were infested with a Frankliniella population of mixed ages. The samples were assessed for mortality 7 days after infestation.

[8] = test rate of 12 ppm, intrinsic, mixed with sucrose solution under Parafilm, 5 days after infestation, read-out: mortality
[9] = application rate of 200 ppm, adult white flies on sprayed cotton leaf discs, 6 days after incubation, read-out: mortality
[10] = test rate of 24 ppm, systemic, roots of infested pea seedlings in test solution, 6 days, read-out: mortality
[11] = application rate of 200 ppm, mixed population (mobile stages) on sprayed bean leaf discs, 8 days after infestation, read-out: mortality
[12] = application rate of 200 ppm, mixed ages on sprayed sunflower leaf discs, 6 days after infestation, read-out: mortality

C[C@@H](COc1cnc(Cl)c(C(=O)NC2CC2)c1)N(CC#N)S(=O)(=O)C(F)(F)F [Compound P-15, 2-chloro-5-[(2S)-2-[cyanomethyl (trifluoromethylsulfonyl)amino]propoxy]-N-cyclopropyl-pyridine-3-carboxamide]
≥ 80%: percent effect (mortality or growth inhibition) at 200 ppm [1] | mortality at 12 ppm [2, 8] | mortality at 200 ppm [3, 9] | mortality at 24 ppm [4, 10] | mortality at 200 ppm [5, 11] | mortality at 200 ppm [6, 12]

C[C@@H](COc1cnc(Cl)c(C(=O)NCC(F)(F)F)c1)NS(=O)(=O)C(F)(F)F [Compound P-3, 2-chloro-N-(2,2,2-trifluoroethyl)-5-[(2S)-2-(trifluoromethylsulfonylamino)propoxy]pyridine-3-carboxamide]
≥ 80%: percent effect (mortality or growth inhibition) at 200 ppm [1] | mortality at 12 ppm [2, 8] | mortality at 200 ppm [7] | mortality at 200 ppm [3, 9] | mortality at 200 ppm [5, 11] | mortality at 200 ppm [6, 12]

C[C@@H](COc1cnc(Cl)c(C(=O)NC2(C#N)CC2)c1)N(CC#N)S(=O)(=O)C(F)(F)F [Compound P-8, 2-chloro-N-(1-cyanocyclopropyl)-5-[(2S)-2-[cyanomethyl(trifluoromethylsulfonyl)amino]propoxy]pyridine-3-carboxamide]
≥ 80%: percent effect (mortality or growth inhibition) at 200 ppm [1] | mortality at 12 ppm [2, 8] | mortality at 200 ppm [3, 9] | mortality at 24 ppm [4, 10] | mortality at 200 ppm [5, 11] | mortality at 200 ppm [6, 12]

COCN([C@@H](C)COc1cnc(Cl)c(C(=O)N(C(C)=O)C2CC2)c1)S(=O)(=O)C(F)(F)F [Compound P-12, N-acetyl-2-chloro-N-cyclopropyl-5-[(2S)-2-[methoxymethyl(trifluoromethylsulfonyl)amino]propoxy]pyridine-3-carboxamide]
≥ 80%: percent effect (mortality or growth inhibition) at 200 ppm [1] | mortality at 12 ppm [2, 8] | mortality at 200 ppm [3, 9] | mortality at 200 ppm [5, 11] | mortality at 200 ppm [6, 12]

C[C@@H](COc1cnc(Cl)c(C(=O)NC2(C#N)CC2)c1)N(C(=O)OC(C)(C)C)S(=O)(=O)C(F)(F)F [Compound P-6, tert-butyl N-[(1S)-2-[[6-chloro-5-[(1-cyanocyclopropyl)carbamoyl]-3-pyridyl]oxy]-1-methyl-ethyl]-N-(trifluoromethylsulfonyl)carbamate]
≥ 80%: percent effect (mortality or growth inhibition) at 200 ppm [1] | mortality at 12 ppm [2, 8] | mortality at 200 ppm [7] | mortality at 200 ppm [3, 9] | mortality at 24 ppm [4, 10] | mortality at 200 ppm [5, 11] | mortality at 200 ppm [6, 12]

C[C@@H](COc1cnc(Cl)c(C(=O)NC2CC2)c1)N(C(=O)OC(C)(C)C)S(=O)(=O)C(F)(F)F [Compound P-42, tert-butyl N-[(1S)-2-[[6-chloro-5-(cyclopropylcarbamoyl)-3-pyridyl]oxy]-1-methyl-ethyl]-N-(trifluoromethylsulfonyl)carbamate]
≥ 80%: percent effect (mortality or growth inhibition) at 200 ppm [1] | mortality at 12 ppm [2, 8] | mortality at 200 ppm [7] | mortality at 200 ppm [5, 11] | mortality at 200 ppm [6, 12]

C[C@@H](COc1cnc(Cl)c(C(=O)N(C)C2CC2)c1)NS(=O)(=O)C(F)(F)F [Compound P-58, 2-chloro-N-cyclopropyl-N-methyl-5-[(2S)-2-(trifluoromethylsulfonylamino)propoxy]pyridine-3-carboxamide]
≥ 80%: percent effect (mortality or growth inhibition) at 200 ppm [1] | mortality at 12 ppm [2, 8] | mortality at 200 ppm [3, 9] | mortality at 24 ppm [4, 10] | mortality at 200 ppm [6, 12]

Cc1ncc(OC[C@H](C)NS(=O)(=O)C(F)(F)F)cc1C(=O)NC1CCN(c2ccc(F)cc2)C1=O (stereo partly drawn) [Compound P-35, N-[1-(4-fluorophenyl)-2-oxo-pyrrolidin-3-yl]-2-methyl-5-[(2S)-2-(trifluoromethylsulfonylamino)propoxy]pyridine-3-carboxamide]
≥ 80%: mortality at 200 ppm [7]

C[C@@H](COc1cnc(Cl)c(C(=O)NC2(C#N)CCC2)c1)NS(=O)(=O)C(F)(F)F [Compound P-48, 2-chloro-N-(1-cyanocyclobutyl)-5-[(2S)-2-(trifluoromethylsulfonylamino)propoxy]pyridine-3-carboxamide]
≥ 80%: mortality at 12 ppm [2, 8] | mortality at 200 ppm [7] | mortality at 24 ppm [4, 10] | mortality at 200 ppm [5, 11] | mortality at 200 ppm [6, 12]

CC(=O)N([C@@H](C)COc1cnc(Cl)c(C(=O)NC2CC2)c1)S(=O)(=O)C(F)(F)F [Compound P-43, 5-[(2S)-2-[acetyl(trifluoromethylsulfonyl)amino]propoxy]-2-chloro-N-cyclopropyl-pyridine-3-carboxamide]
≥ 80%: percent effect (mortality or growth inhibition) at 200 ppm [1] | mortality at 12 ppm [2, 8] | mortality at 200 ppm [7] | mortality at 200 ppm [3, 9] | mortality at 24 ppm [4, 10] | mortality at 200 ppm [5, 11] | mortality at 200 ppm [6, 12]

C[C@@H](COc1cnc(Cl)c(C(=O)NC2CC2)c1)N(C)S(=O)(=O)C(F)(F)F [Compound P-16, 2-chloro-N-cyclopropyl-5-[(2S)-2-[methyl(trifluoromethylsulfonyl)amino]propoxy]pyridine-3-carboxamide]
≥ 80%: percent effect (mortality or growth inhibition) at 200 ppm [1] | mortality at 12 ppm [2, 8] | mortality at 24 ppm [4, 10] | mortality at 200 ppm [5, 11] | mortality at 200 ppm [6, 12]

COC(=O)N([C@@H](C)COc1cnc(Cl)c(C(=O)NC2CC2)c1)S(=O)(=O)C(F)(F)F [Compound P-14, methyl N-[(1S)-2-[[6-chloro-5-(cyclopropylcarbamoyl)-3-pyridyl]oxy]-1-methyl-ethyl]-N-(trifluoromethylsulfonyl)carbamate]
≥ 80%: percent control (mortality or growth inhibition) at 200 ppm [1] | mortality at 12 ppm [2] | mortality at 200 ppm [3] | mortality at 24 ppm [4] | mortality at 200 ppm [5] | mortality at 200 ppm [6]

CC(C)C(=O)OCN([C@@H](C)COc1cnc(Cl)c(C(=O)NC2(C#N)CC2)c1)S(=O)(=O)C(F)(F)F [Compound P-9, [[(1S)-2-[[6-chloro-5-[(1-cyanocyclopropyl)carbamoyl]-3-pyridyl]oxy]-1-methyl-ethyl]-(trifluoromethylsulfonyl)amino]methyl 2-methylpropanoate]
≥ 80%: mortality at 12 ppm [2, 8] | mortality at 200 ppm [7] | mortality at 200 ppm [3, 9] | mortality at 200 ppm [6, 12]

C[C@@H](COc1cnc(Cl)c(C(=O)N(C)C2(C#N)CC2)c1)NS(=O)(=O)C(F)(F)F [Compound P-47, 2-chloro-N-(1-cyanocyclopropyl)-N-methyl-5-[(2S)-2-(trifluoromethylsulfonylamino)propoxy]pyridine-3-carboxamide]
≥ 80%: mortality at 12 ppm [2, 8] | mortality at 200 ppm [7] | mortality at 200 ppm [3, 9] | mortality at 200 ppm [6, 12]

Cc1ncc(OC[C@H](C)NS(=O)(=O)C(F)(F)F)cc1C(=O)NC1CC1 [Compound P-62, N-cyclopropyl-2-methyl-5-[(2S)-2-(trifluoromethylsulfonylamino)propoxy]pyridine-3-carboxamide]
≥ 80%: mortality at 200 ppm [7]

CCNC(=O)c1cc(OC[C@H](C)NS(=O)(=O)C(F)(F)F)cnc1Cl [Compound P-50, 2-chloro-N-ethyl-5-[(2S)-2-(trifluoromethylsulfonylamino)propoxy]pyridine-3-carboxamide]
≥ 80%: percent effect (mortality or growth inhibition) at 200 ppm [1] | mortality at 12 ppm [2, 8] | mortality at 200 ppm [6, 12]

Cc1ncc(OC[C@H](C)NS(=O)(=O)C(F)(F)F)cc1C(=O)NC1CON(CC(F)(F)F)C1=O (stereo partly drawn) [Compound P-30, 2-methyl-N-[3-oxo-2-(2,2,2-trifluoroethyl)isoxazolidin-4-yl]-5-[(2S)-2-(trifluoromethylsulfonylamino)propoxy]pyridine-3-carboxamide]
≥ 80%: mortality at 200 ppm [7]
